Results from patent US12558348B2, “Bioactive phytochemicals” (Phytoquest Limited, priority 2019, dated 2026).
Marks after values point to notes of the source that are not given here.

Assays:
TNF-α = assay: LPS-stimulated TNF-α production in human whole blood (ELISA); format: cell-based; conditions: for TNF-α plasma + LPS: 48 h preincubation, LPS 10 μg/ml 20 h
Method: Blood and buffy coat fractions were supplied by the Scottish National Blood Transfusion Service (SNBTS), Glasgow, UK. Ficoll Histopaque (1.077 g/l), Lipopolysaccharide (from Salmonella abortus equi) was purchased from Sigma-Aldrich Co. Ltd. (UK). PGE was from Cayman Chemical Co. (Ann Arbor, MI). Human TNF-α antibody pairs for TNF-α ELISA assays was from Invitrogen/Life Sciences Europe. All drugs were dissolved in RPMI 1640 medium from Gibco BRL, UK.
Blood was used without any further treatment following donation. It was kindly supplied by the Scottish National Blood Transfusion Service from normal healthy donors as defined by ensuring they all tested negative for HIV, hepatitis B & C, CMV and parasitic diseases such as malaria (as tested by the National Blood Transfusion service). They were also confirmed by our laboratory to be free of acute inflammatory disease at the time the blood was taken by measuring the basal level of TNF-α which was always […].
Aliquots (800 μl) of whole blood were incubated with the compound dissolved in RPMI 1640, as indicated in the results, for the appropriate preincubation period after which LPS was added and incubations continued for a further 20 hr at 37° C. in a humidified (100%) atmosphere of 5% CO2 in air. At the end of the incubation period, supernatants from either plasma or culture medium were collected by centrifugation at 10,000 g for 30 seconds at room temperature and TNF-α levels measured using a human TNF-α ELISA system (BioSource Europe S.A., Belgium, supplied by Invitrogen).
(§1) Table showing the effect of various idoBR1 concentrations on LPS-stimulated TNF-α production in human blood. Whole blood was preincubated for 48 h with varying concentrations of idoBR1 after which LPS (10 μg/ml) was added and incubations continued for a further 20 h. Following incubation at 37° C. (5% CO2, 100% humidity) plasma was collected from blood by centrifugation and the levels of TNF-α In plasma samples were measured by ELISA.
as §1, with “various cucumber extract (0.09% idoBR1)” for “various idoBR1”, “of cucumber Q-Actin extract” for “of idoBR1”, “TNF-α in” for “TNF-α In”, “ELISA. Values represent the means±s.d. of n=3. * denotes P<0.05 compared to LPS alone.” for “ELISA.”

[1] = system: sialidase in human THP-1 (monocyte-like) cell cultures; assay: Endogenous (lysosomal) sialidase activity in LPS-stimulated THP-1 cells; format: cell-based; conditions: for RFU / Sialidase activity/mg protein: 2 hrs then 16 hours LPS; for Relative sialidase activity/mg protein: 16 hours LPS, relative to LPS control = 1.00
Method: The THP-1 cells were cultured in RPMI media supplemented with mercaptoethanol & glutamine to get 80% confluence in culture flask, then aspirated and centrifuged at 1500 rpm for 5 mins. The cell pellet was then resuspended in 1 ml of RPMI complete media and counted conventionally using a Hemocytometer. The cells (5×106) were incubated with PMA (10 ng/ml) in separate dishes to differentiate THP-1 cells. […] […] Post incubation, the cells were used to determine the sialidase activity.
The THP-1 cells were washed with phosphate-buffered saline (PBS) and resuspended in ice-cold buffer containing 0.25 M sucrose, 1 mM EDTA, and 0.2 mM phenylmethylsulfonyl fluoride. The cell suspension was sonicated on ice for 15 s on a low setting (6% amplitude) (Vibracell™; Sonics and Materials Inc., Newtown, CT) followed by centrifugation at 25,000 g for 15 min at 4° C. The resulting supernatant was used to determine the lysosomal sialidase activity. Protein quantification of the supernatant was performed using the Bio-Rad protein determination kit as described above. For the determination of lysosomal sialidase activity, 200 μg of total protein was mixed with 40 nmol of 4-methylumbelliferyl-α-N-acetyl-D-neuraminic acid (Sigma), the lysosomal sialidase-specific substrate, 10 μmol sodium acetate buffer, pH 4.6, and 200 μg of bovine serum albumin in a total volume of 200 μl. The sialidase reaction was allowed to proceed for 1 h at 37° C. and was terminated by the addition of 0.25 M glycine NaOH, pH 10.4. Released 4-methylumbelliferone was measured fluorometrically (Synergy 2 multimode microplate reader) at an excitation wavelength of 365 nm and emission wavelength of 448 nm.

For `O=C(O)[C@@H]1NC[C@H](O)[C@@H](O)[C@@H]1O` [idoBR1, (2R,3R,4R,5S)-3,4,5-trihydroxypiperidine-2-carboxylic acid], the “effective concentration on LPS-induced TNF-α in human blood” value (TNF-α) was “below 10 μM”, the “TNF-α plasma + LPS” value (TNF-α; 0.01 μM) was 1680 pg/mL and the “TNF-α plasma + LPS” value (TNF-α; 0.1 μM) was 950* pg/ml. For the same compound, the “TNF-α plasma + LPS” value (TNF-α; 1 μM) was 490* pg/ml, the “TNF-α plasma + LPS” value (TNF-α; 10 μM) was 500* pg/ml and the “TNF-α plasma (no LPS)” value (TNF-α; 10 μM, no LPS) was 200 pg/mL. For the same compound, the IC50 (TNF-α; 48 hr preincubation, human blood) was 0.182 µM, the “concentration with significant activity in human blood” value (TNF-α; second study, with pre-incubation) was 0.01 µM and the “Sialidase activity/mg of protein” value ([1]; 12.5 μg/mL + LPS, 4 hours) was 91.30. For the same compound, the “Sialidase activity/mg of protein” value ([1]; 12.5 μg/mL + LPS, 8 hours) was 129.95, the “Sialidase activity/mg of protein” value ([1]; 12.5 μg/mL + LPS, 16 hours) was 186.34 and the “Sialidase activity/mg of protein” value ([1]; 12.5 μg/mL + LPS, 24 hours) was 108.47. For the same compound, the RFU ([1]; 12.5 μg/ml) was 1610 RFU, the Sialidase activity/mg protein ([1]; 12.5 μg/ml) was 186.34 and the “Relative sialidase activity/mg protein” value ([1]; 12.5 μg/ml) was 0.89. For the same compound, the “Sialidase activity/mg of protein” value ([1]; 25 μg/mL + LPS, 4 hours) was 86.48, the “Sialidase activity/mg of protein” value ([1]; 25 μg/mL + LPS, 8 hours) was 121.84 and the “Sialidase activity/mg of protein” value ([1]; 25 μg/mL + LPS, 16 hours) was 178.24. For the same compound, the “Sialidase activity/mg of protein” value ([1]; 25 μg/mL + LPS, 24 hours) was 103.85, the RFU ([1]; 25 μg/ml) was 1540 RFU and the Sialidase activity/mg protein ([1]; 25 μg/ml) was 178.24. For the same compound, the “Relative sialidase activity/mg protein” value ([1]; 25 μg/ml) was 0.86, the “Sialidase activity/mg of protein” value ([1]; 50 μg/mL + LPS, 4 hours) was 79.35 and the “Sialidase activity/mg of protein” value ([1]; 50 μg/mL + LPS, 8 hours) was 109.77. The “Sialidase activity/mg of protein” value ([1]; 50 μg/mL + LPS, 16 hours) was 130.21, the “Sialidase activity/mg of protein” value ([1]; 50 μg/mL + LPS, 24 hours) was 88.83 and the RFU ([1]; 50 μg/ml) was 1125 RFU. The Sialidase activity/mg protein ([1]; 50 μg/ml) was 130.21, the “Relative sialidase activity/mg protein” value ([1]; 50 μg/ml) was 0.63 and the “Sialidase activity/mg of protein” value ([1]; 100 μg/mL + LPS, 4 hours) was 72.15. The “Sialidase activity/mg of protein” value ([1]; 100 μg/mL + LPS, 8 hours) was 99.32, the “Sialidase activity/mg of protein” value ([1]; 100 μg/mL + LPS, 16 hours) was 115.16 and the “Sialidase activity/mg of protein” value ([1]; 100 μg/mL + LPS, 24 hours) was 78.66. The RFU ([1]; 100 μg/ml) was 995 RFU, the Sialidase activity/mg protein ([1]; 100 μg/ml) was 115.16 and the “Relative sialidase activity/mg protein” value ([1]; 100 μg/ml) was 0.55.
